From ChEMBL document CHEMBL1201862, “PubChem BioAssay data set” (2004)
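Exposure lasted 48 hours, with cells grown in 96-well plates and compounds tested at five concentrations. GI50 = concentration required for 50% inhibition of growth.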 Calls of active or inactive are those of the source. Cut-off read from the data, not from the text of the source: active = GI50 up to about 1.1 µM and inactive = higher.

Tests used:
Assay in all cases: NCI anticancer screen, dose series, 48 h
U-251 = system: U-251
NCI-H226 = system: NCI-H226
CCRF-CEM = system: CCRF-CEM
DLD-1 = system: DLD-1
SNB-19 = system: SNB-19
OVCAR-4 = system: OVCAR-4
TK-10 = system: TK-10
786-0 = system: 786-0
Malme-3M = system: Malme-3M
LXFL 529 = system: LXFL 529
HCT-15 = system: HCT-15
SK-MEL-28 = system: SK-MEL-28
KM12 = system: KM12
DMS-273 = system: DMS-273
UACC-257 = system: UACC-257
COLO 205 = system: COLO 205
SW-620 = system: SW-620
HCT-116 = system: HCT-116
K562 = system: K562
CAKI-1 = system: CAKI-1
SK-MEL-5 = system: SK-MEL-5
NCI-H522 = system: NCI-H522
SF-268 = system: SF-268
UACC-62 = system: UACC-62
MOLT-4 = system: MOLT-4
HOP-62 = system: HOP-62
A498 = system: A498
HL-60 = system: HL-60
SF-295 = system: SF-295
UO-31 = system: UO-31
SNB-78 = system: SNB-78
IGROV-1 = system: IGROV-1
NCI-H460 = system: NCI-H460
A549 = system: A549
OVCAR-8 = system: OVCAR-8
SN12C = system: SN12C
DMS-114 = system: DMS-114
ACHN = system: ACHN
RXF 393 = system: RXF 393
RXF 631 = system: RXF 631
SF-539 = system: SF-539
M19-MEL = system: M19-MEL
RPMI-8226 = system: RPMI-8226
HT-29 = system: HT-29
OVCAR-3 = system: OVCAR-3
M14 = system: M14
HOP-18 = system: HOP-18
EKVX = system: EKVX
OVCAR-5 = system: OVCAR-5
HOP-92 = system: HOP-92
LOX IMVI = system: LOX IMVI

For COc1ccc(C(O)c2cc(OC)c(OC)c(OC)c2)cc1 (stereo unspecified), the GI50 (U-251) was 34 µM (inactive), the GI50 (NCI-H226) was 32.4 µM (inactive) and the GI50 (CCRF-CEM) was 20 µM (inactive). For the same compound, the GI50 (DLD-1) was 38.2 µM (inactive), the GI50 (SNB-19) was 42.4 µM (inactive) and the GI50 (OVCAR-4) was 31.8 µM (inactive). For the same compound, the GI50 (TK-10) was 31.3 µM (inactive), the GI50 (786-0) was 46.8 µM (inactive) and the GI50 (Malme-3M) was 23.7 µM (inactive). For the same compound, the GI50 (LXFL 529) was 40.9 µM (inactive), the GI50 (HCT-15) was 8.77 µM and the GI50 (SK-MEL-28) was 72.1 µM (inactive). For the same compound, the GI50 (KM12) was 7.52 µM (inactive), the GI50 (DMS-273) was 4.21 µM (inactive) and the GI50 (UACC-257) was 38.2 µM (inactive). The GI50 (COLO 205) was 8.73 µM (inactive), the GI50 (SW-620) was 6.85 µM (inactive) and the GI50 (HCT-116) was 24.2 µM (inactive). The GI50 (K562) was 3.78 µM (inactive), the GI50 (CAKI-1) was 37.1 µM (inactive) and the GI50 (SK-MEL-5) was 17 µM (inactive). For the same compound, the GI50 (NCI-H522) was 11.6 µM (inactive), the GI50 (SF-268) was 39 µM (inactive) and the GI50 (UACC-62) was 8.91 µM (inactive). For the same compound, the GI50 (MOLT-4) was 16.9 µM (inactive), the GI50 (HOP-62) was 26.3 µM (inactive) and the GI50 (A498) was 25.9 µM (inactive). For the same compound, the GI50 (HL-60) was 6.11 µM (inactive), the GI50 (SF-295) was 6.44 µM (inactive) and the GI50 (UO-31) was 30.6 µM (inactive). The GI50 (SNB-78) was 44.4 µM (inactive), the GI50 (IGROV-1) was 18 µM (inactive) and the GI50 (NCI-H460) was 31.6 µM (inactive). The GI50 (A549) was 17.1 µM (inactive), the GI50 (OVCAR-8) was 30.3 µM (inactive) and the GI50 (SN12C) was 42.8 µM (inactive). For the same compound, the GI50 (DMS-114) was 6.84 µM (inactive), the GI50 (ACHN) was 69.8 µM (inactive) and the GI50 (RXF 393) was 10.1 µM (inactive). The GI50 (RXF 631) was 30.1 µM (inactive), the GI50 (SF-539) was 21.3 µM (inactive) and the GI50 (M19-MEL) was 21 µM (inactive). For the same compound, the GI50 (RPMI-8226) was 19.9 µM (inactive), the GI50 (HT-29) was 7.16 µM (inactive) and the GI50 (OVCAR-3) was 18.5 µM (inactive). The GI50 (M14) was 13 µM (inactive), the GI50 (HOP-18) was 39 µM (inactive) and the GI50 (EKVX) was 43.9 µM (inactive). For the same compound, the GI50 (OVCAR-5) was > 100 µM (inactive), the GI50 (HOP-92) was 27.3 µM (inactive) and the GI50 (LOX IMVI) was 17.2 µM (inactive).
